Data as given in US20030207812A1, “Cd45 inhibitors” (priority 2002, published 2003).
Where a SMILES comes first, the peptide text is derived from it. The star is where a group is joined. Phenanthrenequinone2carbonyl = O=C1C(=O)c2cc(C(=O)*)ccc2-c2ccccc21; 3Phenanthroyl(9,10-dioxo) = O=C1C(=O)c2ccc(C(=O)*)cc2-c2ccccc21

Legend:
CD45 [1] = target: T1, CD45 (Homo sapiens, UniProt P08575); experiment: Phosphatase assay using lck 10-mer as substrate; format: biochemical
T1 construct: incubating the cytosolic portion of CD45 with the compounds and p-nitrophenyl phosphate (pNPP); purchased BIOMOL (Plymouth Meeting, Pa.)
T1 sequence (P08575 599-1306 limits assumed): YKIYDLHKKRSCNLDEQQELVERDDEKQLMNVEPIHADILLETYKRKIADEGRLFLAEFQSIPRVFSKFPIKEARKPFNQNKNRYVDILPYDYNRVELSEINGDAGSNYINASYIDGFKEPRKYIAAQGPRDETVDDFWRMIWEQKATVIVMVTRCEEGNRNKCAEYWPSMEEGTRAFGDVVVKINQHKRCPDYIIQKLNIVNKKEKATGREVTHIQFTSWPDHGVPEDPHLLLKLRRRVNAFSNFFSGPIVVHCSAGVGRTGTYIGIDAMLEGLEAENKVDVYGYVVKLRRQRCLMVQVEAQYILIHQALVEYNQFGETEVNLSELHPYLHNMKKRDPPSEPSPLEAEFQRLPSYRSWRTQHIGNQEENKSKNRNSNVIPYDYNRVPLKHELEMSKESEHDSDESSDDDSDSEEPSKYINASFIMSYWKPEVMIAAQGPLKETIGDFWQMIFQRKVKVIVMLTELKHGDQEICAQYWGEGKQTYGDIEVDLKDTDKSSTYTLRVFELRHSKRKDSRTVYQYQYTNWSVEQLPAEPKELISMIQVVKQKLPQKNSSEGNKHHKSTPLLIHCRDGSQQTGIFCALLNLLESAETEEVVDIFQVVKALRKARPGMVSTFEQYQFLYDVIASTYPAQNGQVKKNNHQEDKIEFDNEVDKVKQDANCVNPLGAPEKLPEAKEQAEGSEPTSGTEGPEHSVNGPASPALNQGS
Outline: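 Enzyme incubated with lck phosphopeptide TEGQpYQPQP for 1.5 h at room temperature in 25 mM HEPES pH 7.2, 5 mM DTT, 10 μg/mL BSA, 5% DMSO final. Compounds tested from 30 to 0.01 μM. Released phosphate detected with malachite-type Green Reagent, absorbance at 620 nm after 30 min.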

CD45 [2] = target: T1, CD45; experiment: Phosphatase assay using pNPP as substrate; format: biochemical
Description: Phosphatase assay using pNPP as substrate:
CD45 enzyme was obtained from BIOMOL (Plymouth Meeting, Pa.). Phosphatase activity was assayed in a buffer containing final concentrations of 25 mM imidazole at pH 7.0, 50 mM NaCl, 2.5 mM ethylenediaminetetraacetic acid (“EDTA”), 5 mM dithiothreitol (“DTT”) and 10 μg/mL bovine serum albumin (“BSA”) using pNPP as a substrate.

in vitro = settings: human
Description: Calcein-AM (Molecular Probes. Eugene, Oreg.) uptake, as a quantitative measure of cell viability, was used to evaluate the toxic effect of compounds on T cells.
The T-cell lymphoblasts were purified by separation over Lymphoprep, plated at 2×10^5/well in a round bottom 96-well plate containing RPMI with compound and incubated overnight at 37° C. in an incubator containing 5% CO2. The dilution scheme and culture media were the same as those used in the T-cell proliferation assay. After the incubation period, cells were washed with Dulbecco's phosphate-buffered saline (D-PBS) and incubated with 1 μM Calcein-AM for 30-45 mim in D-PBS as described in the technical sheet provided with The LIVE/DEAD Viability/Cytotoxicity Kit from Molecular Probes.

[3] = CD45 phosphatase, lck carboxy-terminal peptide TEGQpYQPQP substrate, pH 7.2, read-out: Ick IC50

| Structure (SMILES) | IC50 (CD45 [1]) [µM] | IC50 (CD45 [2]; pH 7, read-out: pNPP IC50) [µM] | CC50 (in vitro) [µM] | IC50 (CD45 [1]; [3]) [µM] | IC50 (CD45 [2]) [µM] |
| --- | --- | --- | --- | --- | --- |
| NC(=O)CC[C@H](NC(=O)[C@H](CCC(=O)O)NC(=O)c1ccc2c(c1)-c1ccccc1C(=O)C2=O)C(=O)NCC(=O)N[C@@H](CCC(N)=O)C(=O)N1CCC[C@H]1C(=O)O [Example 31] ({3Phenanthroyl(9,10-dioxo)}-EQGQP-OH) | 2.5 | 0.6 | > 30 | – | – |
| NC(=O)CC[C@H](NC(=O)CNC(=O)[C@H](CCC(=O)O)NC(=O)CNC(=O)c1ccc2c(c1)-c1ccccc1C(=O)C2=O)C(=O)N1CCC[C@H]1C(=O)O [Example 32] ({3Phenanthroyl(9,10-dioxo)}-GEGQP-OH) | 2.3 | 0.7 | > 30 | – | – |
| NC(=O)CC[C@H](NC(=O)c1ccc2c(c1)-c1ccccc1C(=O)C2=O)C(=O)N[C@@H](CCC(=O)O)C(=O)NCC(=O)N[C@@H](CCC(N)=O)C(=O)N1CCC[C@H]1C(=O)O [Example 33] ({3Phenanthroyl(9,10-dioxo)}-QEGQP-OH) | 2.5 | 1.1 | > 30 | – | – |
| NC(=O)CC[C@H](NC(=O)CNC(=O)c1ccc2c(c1)-c1ccccc1C(=O)C2=O)C(=O)NCC(=O)N[C@@H](CCC(=O)O)C(=O)N1CCC[C@H]1C(=O)O [Example 35] ({3Phenanthroyl(9,10-dioxo)}-GQGEP-OH) | 1.4 | 0.9 | > 30 | – | – |
| NC(=O)CC[C@H](NC(=O)[C@@H]1CCCN1C(=O)[C@H](CCC(N)=O)NC(=O)CNC(=O)c1ccc2c(c1)-c1ccccc1C(=O)C2=O)C(=O)NCC(=O)O [Example 36] ({3Phenanthroyl(9,10-dioxo)}-GQPQG-OH) | – | – | > 30 | 2.2 | 1 |
| NC(=O)CC[C@H](NC(=O)c1ccc2c(c1)-c1ccccc1C(=O)C2=O)C(=O)N[C@@H](CCC(N)=O)C(=O)N1CCC[C@H]1C(=O)N[C@@H](CCC(N)=O)C(=O)NCC(=O)O [Example 37] ({3Phenanthroyl(9,10-dioxo)}-QQPQG-OH) | – | – | > 30 | 2.1 | 1.1 |
| NC(=O)CC[C@H](NC(=O)CNC(=O)c1ccc2c(c1)-c1ccccc1C(=O)C2=O)C(=O)N1CCC[C@H]1C(=O)N[C@@H](CCC(=O)O)C(=O)NCC(=O)O [Example 39] ({3Phenanthroyl(9,10-dioxo)}-GQPEG-OH) | – | – | > 30 | 2.3 | 0.7 |
| O=C(O)CC[C@H](NC(=O)[C@@H]1CCCN1C(=O)CNC(=O)CNC(=O)c1ccc2c(c1)C(=O)C(=O)c1ccccc1-2)C(=O)NCC(=O)O [Example 40] (Phenanthrenequinone2carbonyl-GGPEG-OH) | 3.9 | 0.6 | > 30 | – | – |
| O=C(O)CC[C@H](NC(=O)c1ccc2c(c1)C(=O)C(=O)c1ccccc1-2)C(=O)NCC(=O)N1CCC[C@H]1C(=O)N[C@@H](CCC(=O)O)C(=O)NCC(=O)O [Example 41] (Phenanthrenequinone2carbonyl-EGPEG-OH) | 3.5 | 1.4 | > 30 | – | – |
| N=C(N)NCCC[C@H](NC(=O)c1ccc2c(c1)C(=O)C(=O)c1ccccc1-2)C(=O)NCC(=O)N1CCC[C@H]1C(=O)N[C@@H](CCC(=O)O)C(=O)NCC(=O)O [Example 42] (Phenanthrenequinone2carbonyl-RGPEG-OH) | 3.5 | 0.9 | > 30 | – | – |
| O=C(O)CC[C@H](NC(=O)[C@@H]1CCCN1C(=O)[C@H](CCC(=O)O)NC(=O)CNC(=O)c1ccc2c(c1)C(=O)C(=O)c1ccccc1-2)C(=O)NCC(=O)O [Example 43] (Phenanthrenequinone2carbonyl-GEPEG-OH) | 3.8 | 1.9 | > 30 | – | – |
| O=C(O)CC[C@H](NC(=O)c1ccc2c(c1)C(=O)C(=O)c1ccccc1-2)C(=O)N[C@@H](CCC(=O)O)C(=O)N1CCC[C@H]1C(=O)N[C@@H](CCC(=O)O)C(=O)NCC(=O)O [Example 44] (Phenanthrenequinone2carbonyl-EEPEG-OH) | 3.8 | 1.1 | > 30 | – | – |
| N=C(N)NCCC[C@H](NC(=O)c1ccc2c(c1)C(=O)C(=O)c1ccccc1-2)C(=O)N[C@@H](CCC(=O)O)C(=O)N1CCC[C@H]1C(=O)N[C@@H](CCC(=O)O)C(=O)NCC(=O)O [Example 45] (Phenanthrenequinone2carbonyl-REPEG-OH) | 3.9 | 1.4 | > 30 | – | – |
| N=C(N)NCCC[C@H](NC(=O)CNC(=O)c1ccc2c(c1)C(=O)C(=O)c1ccccc1-2)C(=O)N1CCC[C@H]1C(=O)N[C@@H](CCC(=O)O)C(=O)NCC(=O)O [Example 46] (Phenanthrenequinone2carbonyl-GRPEG-OH) | 3.8 | 1 | > 30 | – | – |
| N=C(N)NCCC[C@H](NC(=O)[C@H](CCC(=O)O)NC(=O)c1ccc2c(c1)C(=O)C(=O)c1ccccc1-2)C(=O)N1CCC[C@H]1C(=O)N[C@@H](CCC(=O)O)C(=O)NCC(=O)O [Example 47] (Phenanthrenequinone2carbonyl-ERPEG-OH) | 4.2 | 0.7 | > 30 | – | – |
| N=C(N)NCCC[C@H](NC(=O)c1ccc2c(c1)C(=O)C(=O)c1ccccc1-2)C(=O)N[C@@H](CCCNC(=N)N)C(=O)N1CCC[C@H]1C(=O)N[C@@H](CCC(=O)O)C(=O)NCC(=O)O [Example 48] (Phenanthrenequinone2carbonyl-RRPEG-OH) | 5.7 | 0.6 | > 30 | – | – |
| N=C(N)NCCC[C@H](NC(=O)[C@@H]1CCCN1C(=O)CNC(=O)CNC(=O)c1ccc2c(c1)C(=O)C(=O)c1ccccc1-2)C(=O)NCC(=O)O [Example 49] (Phenanthrenequinone2carbonyl-GGPRG-OH) | 6.1 | 0.9 | > 30 | – | – |
| N=C(N)NCCC[C@H](NC(=O)[C@@H]1CCCN1C(=O)CNC(=O)[C@H](CCC(=O)O)NC(=O)c1ccc2c(c1)C(=O)C(=O)c1ccccc1-2)C(=O)NCC(=O)O [Example 50] (Phenanthrenequinone2carbonyl-EGPRG-OH) | 2.8 | 0.7 | > 30 | – | – |
| N=C(N)NCCC[C@H](NC(=O)c1ccc2c(c1)C(=O)C(=O)c1ccccc1-2)C(=O)NCC(=O)N1CCC[C@H]1C(=O)N[C@@H](CCCNC(=N)N)C(=O)NCC(=O)O [Example 51] (Phenanthrenequinone2carbonyl-RGPRG-OH) | 4.8 | 1.1 | > 30 | – | – |
| N=C(N)NCCC[C@H](NC(=O)[C@@H]1CCCN1C(=O)[C@H](CCC(=O)O)NC(=O)CNC(=O)c1ccc2c(c1)C(=O)C(=O)c1ccccc1-2)C(=O)NCC(=O)O [Example 52] (Phenanthrenequinone2carbonyl-GEPRG-OH) | 3 | 0.8 | > 30 | – | – |
| N=C(N)NCCC[C@H](NC(=O)[C@@H]1CCCN1C(=O)[C@H](CCC(=O)O)NC(=O)[C@H](CCC(=O)O)NC(=O)c1ccc2c(c1)C(=O)C(=O)c1ccccc1-2)C(=O)NCC(=O)O [Example 53] (Phenanthrenequinone2carbonyl-EEPRG-OH) | 3.7 | 1 | > 30 | – | – |
| N=C(N)NCCC[C@H](NC(=O)c1ccc2c(c1)C(=O)C(=O)c1ccccc1-2)C(=O)N[C@@H](CCC(=O)O)C(=O)N1CCC[C@H]1C(=O)N[C@@H](CCCNC(=N)N)C(=O)NCC(=O)O [Example 54] (Phenanthrenequinone2carbonyl-REPRG-OH) | – | – | > 30 | 3.9 | 0.9 |
